This is an account of results in article PMC6600542 (Molecules, 2019).

pIC50: −log10 of the molar value. “And” between values parts separate entries of the source, which are not always exact repeats. Equal entries are not always repeated. Bounds are passed on as bounds.

One data set has as its target human plasmin (Homo sapiens, UniProt P00747). The data set is described as follows: Plasmin chromogenic substrate hydrolysis assay. Type of data set: biochemical. The note with it: Spectrozyme PL, pH 7.4, 37 °C. As to the method: (§1) Direct inhibition of human FXa and α-thrombin of the common coagulation pathway and human plasmin of the fibrinolysis pathway were measured using the corresponding chromogenic substrate hydrolysis assays at 37 °C and pH 7.4, as reported earlier using the 96-microplate platform. […] After 10 min incubation, 5 µL Spectrozyme FXa (5 mM stock conc.) was rapidly added and the residual activity of FXa was measured from the initial rate of increase in absorbance at 405 nm. […] The concentration vs effect curve was constructed using logistic Equation (1) from which the potency (IC50) and efficacy (ΔY) of inhibition were also obtained.
For thrombin and plasmin, the assays were performed using substrates appropriate for each enzyme (Spectrozyme TH for thrombin and Spectrozyme PL for plasmin) under conditions closest to the physiological condition. The KM of the substrate for its enzyme was used to identify the concentration of the substrate to be used for inhibition studies. […] After 10 min incubation, 5 µL Spectrozyme TH (1.0 mM stock conc.) was rapidly added and the residual activity of thrombin was measured from the initial rate of increase in absorbance at 405 nm. […] After 10 min incubation, 5 µL Spectrozyme PL (1.0 mM stock conc.) was rapidly added and the residual activity of plasmin was measured from the initial rate of increase in absorbance at 405 nm. […] Buffer for assays was 20–50 mM Tris-HCl buffer, pH 7.4, containing 100–150 mM NaCl, 2.5 mM CaCl2, 0.1% PEG8000, and 0.02% Tween80. All assays were performed three times.

Another data set has as its target T1, FXIa (Homo sapiens, UniProt P03951).
T1 construct: purchased Haematologic Technologies, Inc; host or cells: plasma
The data set is described as follows: FXIa chromogenic substrate hydrolysis assay. Type of data set: biochemical. As to the method:
(§2) Direct inhibition of the human coagulation transglutaminase FXIIIa was also studied using a fluorescence-based transglutamination assay as reported in the literature.
(§3) After 10 min incubation, 5 µL FXIa substrate (6.9 mM stock concentration) was rapidly added and the residual FXIa activity was measured from the initial rate of increase in absorbance at 405 nm. Assays were performed in similar fashion with trypsin and chymotrypsin. Stock concentrations used were 18.9 µg/mL (trypsin) and 22.7 mM (S-2222) for bovine trypsin assay (final volume was 200 µL) and 2 µg/mL (chymotrypsin) and 16.2 mM (N-Succinyl-Ala-Ala-Pro-Phe-p-nitroanilide) for bovine chymotrypsin assay (final volume was 200 µL). The buffer used for FXIa, trypsin, chymotrypsin assays was 50 mM Tris-HCl buffer, pH 7.4, containing 150 mM NaCl, 2.5 mM CaCl2, 0.1% PEG8000, and 0.02% Tween80. Neutrophil elastase inhibition assay was performed in a 96-well plate with a final volume of 100 µl with 0.125 M 4-(2-hydroxyethyl)-1-piperazineethanesulfonic acid (HEPES) buffer, pH 7.4 containing 0.125% Triton-X 100, as reported earlier. […] After incubation, 3 µL neutrophil elastase substrate (S-1384; 25 mM stock conc.) was rapidly added and the residual enzyme activity measured from the initial rate of increase in the absorbance at 405 nm.

Data set [1] addresses T2, guinea pig transglutaminase (UniProt P08587).
T2 sequence (P08587 1-690): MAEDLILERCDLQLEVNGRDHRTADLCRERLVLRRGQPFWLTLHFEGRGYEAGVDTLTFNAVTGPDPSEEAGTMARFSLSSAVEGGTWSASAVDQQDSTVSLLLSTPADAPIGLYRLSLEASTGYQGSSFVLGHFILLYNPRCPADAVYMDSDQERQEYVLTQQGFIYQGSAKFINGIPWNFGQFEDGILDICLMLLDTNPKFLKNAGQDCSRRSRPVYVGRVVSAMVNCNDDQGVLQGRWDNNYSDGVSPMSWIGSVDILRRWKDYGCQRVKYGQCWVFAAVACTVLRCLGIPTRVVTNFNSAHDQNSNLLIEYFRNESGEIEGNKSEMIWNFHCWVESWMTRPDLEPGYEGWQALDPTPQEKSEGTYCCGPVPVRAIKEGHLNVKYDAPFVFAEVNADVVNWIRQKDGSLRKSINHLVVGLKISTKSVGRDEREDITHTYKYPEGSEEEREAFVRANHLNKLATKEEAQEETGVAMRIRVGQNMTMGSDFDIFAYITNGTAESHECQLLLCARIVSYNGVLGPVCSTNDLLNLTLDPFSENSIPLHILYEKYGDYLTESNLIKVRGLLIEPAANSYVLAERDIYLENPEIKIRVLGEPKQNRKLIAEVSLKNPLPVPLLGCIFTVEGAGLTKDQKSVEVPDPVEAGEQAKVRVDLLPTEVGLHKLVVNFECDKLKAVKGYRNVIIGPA
In words: Guinea pig transglutaminase inhibition. Type of data set: biochemical. Particulars: at concentrations as high as 500 µM.

For another data set, the system named is clotting times. The note with it: cited from earlier work.
The target of the next data set is T3, human α-thrombin (Homo sapiens, UniProt P00734).
T3 construct: purchased Haematologic Technologies, Inc
In words: Thrombin chromogenic substrate hydrolysis assay. Type of data set: biochemical. As to the method: as §1
For thrombin and plasmin, the assays were performed using substrates appropriate for each enzyme (Spectrozyme TH for thrombin and Spectrozyme PL for plasmin) under conditions closest to the physiological condition. The KM of the substrate for its enzyme was used to identify the concentration of the substrate to be used for inhibition studies. […] After 10 min incubation, 5 µL Spectrozyme TH (1.0 mM stock conc.) was rapidly added and the residual activity of thrombin was measured from the initial rate of increase in absorbance at 405 nm. […] After 10 min incubation, 5 µL Spectrozyme PL (1.0 mM stock conc.) was rapidly added and the residual activity of plasmin was measured from the initial rate of increase in absorbance at 405 nm. […]

Data set [2] has as its target T4, human neutrophil elastase (Homo sapiens, UniProt P08246).
T4 construct: purchased Elastin Products Company
T4 sequence (P08246 30-247 limits assumed): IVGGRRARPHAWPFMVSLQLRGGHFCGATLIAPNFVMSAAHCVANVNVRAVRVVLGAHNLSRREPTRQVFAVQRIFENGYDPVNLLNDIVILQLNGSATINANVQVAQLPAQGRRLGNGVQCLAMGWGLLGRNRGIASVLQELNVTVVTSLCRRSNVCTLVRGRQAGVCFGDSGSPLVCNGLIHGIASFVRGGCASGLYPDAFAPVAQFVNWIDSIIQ
In words: Neutrophil elastase chromogenic substrate hydrolysis assay. Type of data set: biochemical. The note with it: pH 7.4. The procedure:
as §2, §3

Details of data set [3]: method as in PMID 3491164, PMID 3680992, PMID 1984463. Particulars: patients; read-out: means of plasma CMAX; cited from earlier work.
The test system of data set [4] is human plasma deficient of FXII. In words: APTT clotting assay, FXII-deficient plasma. Type of data set: biochemical. The procedure:
For the PT assay, thromboplastin-D was reconstituted according to the manufacturer’s directions and warmed to 37 °C. […] After incubation for 4 min at 37 °C, clotting was initiated by adding 100 μL of prewarmed 25 mM CaCl2 and the time to clotting was noted. […] To determine the in vitro effect on the APTT of deficient human plasmas, the APTT assay was repeated, using human plasmas deficient of factor VII (FVII), factor IX (FIX), FXI, or factor XII (FXII). […] The positive control used in APTT and PT assays was rivaroxaban, a clinically used FXa inhibitor. Under the conditions reported, rivaroxaban doubled the APTT and PT at concentrations of 0.123 ± 0.003 µM and 0.193 ± 0.043 µM, respectively.

Chain of human plasmin (P00747 581-810 limits assumed): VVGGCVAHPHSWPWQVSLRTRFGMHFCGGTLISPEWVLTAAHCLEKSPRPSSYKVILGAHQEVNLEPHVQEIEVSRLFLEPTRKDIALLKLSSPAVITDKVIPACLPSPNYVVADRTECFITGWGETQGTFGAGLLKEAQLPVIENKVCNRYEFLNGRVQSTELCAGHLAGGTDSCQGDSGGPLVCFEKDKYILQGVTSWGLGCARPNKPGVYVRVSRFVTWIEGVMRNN
Chain of human plasmin (P00747 97-580 partner limits assumed): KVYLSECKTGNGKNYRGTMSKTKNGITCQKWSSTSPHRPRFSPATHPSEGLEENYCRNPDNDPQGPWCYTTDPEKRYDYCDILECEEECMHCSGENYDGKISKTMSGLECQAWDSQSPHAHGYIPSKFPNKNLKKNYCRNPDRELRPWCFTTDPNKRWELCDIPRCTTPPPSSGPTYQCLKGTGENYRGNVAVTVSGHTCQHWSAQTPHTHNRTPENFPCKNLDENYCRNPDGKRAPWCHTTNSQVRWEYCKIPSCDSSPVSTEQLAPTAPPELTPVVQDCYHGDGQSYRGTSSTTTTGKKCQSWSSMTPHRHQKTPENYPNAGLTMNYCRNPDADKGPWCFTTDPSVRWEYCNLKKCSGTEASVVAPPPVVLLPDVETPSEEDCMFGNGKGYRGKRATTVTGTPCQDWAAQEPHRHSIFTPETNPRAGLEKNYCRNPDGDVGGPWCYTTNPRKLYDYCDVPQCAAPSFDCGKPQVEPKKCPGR
T1 sequence (P03951 388-625 limits assumed): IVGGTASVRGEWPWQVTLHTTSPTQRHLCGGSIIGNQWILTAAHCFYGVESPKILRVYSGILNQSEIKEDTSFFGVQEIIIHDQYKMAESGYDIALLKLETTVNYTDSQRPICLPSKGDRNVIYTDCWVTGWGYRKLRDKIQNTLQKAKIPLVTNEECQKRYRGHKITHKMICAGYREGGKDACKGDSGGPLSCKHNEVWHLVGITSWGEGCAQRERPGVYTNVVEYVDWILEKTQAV
T1 sequence (P03951 19-387 partner limits assumed): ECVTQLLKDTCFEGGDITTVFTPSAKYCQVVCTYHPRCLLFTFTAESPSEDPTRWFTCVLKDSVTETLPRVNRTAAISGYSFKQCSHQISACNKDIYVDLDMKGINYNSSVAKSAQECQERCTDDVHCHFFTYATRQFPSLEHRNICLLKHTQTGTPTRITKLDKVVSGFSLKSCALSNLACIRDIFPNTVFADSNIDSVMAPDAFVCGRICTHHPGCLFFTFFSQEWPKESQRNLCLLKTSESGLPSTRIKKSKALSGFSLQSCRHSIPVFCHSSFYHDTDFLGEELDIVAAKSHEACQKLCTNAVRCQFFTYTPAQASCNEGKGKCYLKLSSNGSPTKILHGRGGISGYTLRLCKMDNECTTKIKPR

As for `N=C(N)c1ccc(OCCCCCOc2ccc(C(=N)N)cc2)cc1` [pentamidine isethionate, 4,4′-(pentane-1,5-diylbis(oxy))-dibenzimidamide], on human plasmin, the HS was 1.1 ± 0.1. The pIC50 is ~5.08 and 5.08 against human plasmin; less than 4.00 on FXIa (pH 7.4); less than 4.00 at human α-thrombin (Thrombin, pH 7.4, 37 °C); less than 4.00 in data set [2]. Also, the figures for the “∆Y (efficacy)” value at human plasmin and on human plasmin (listed as pentamidine) were 98.0 ± 3.3% and ~ 100%, respectively. The inhibition at 100 µM is less than 40% against FXIa (at 100 µM (highest concentration tested)) and less than 40% against human α-thrombin (thrombin, at 100 µM (highest concentration tested)). The “inhibition of guinea pig transglutaminase” value in data set [1] is reported as “did not inhibit”. Besides, the “concentration that prolongs clotting times” value with clotting times is “greater than 8.4 µM”. Moreover, in data set [3], the Cmax was not above 1000 nM. For the same compound, the “APTTEC2×, concentration to double clotting time” value in data set [4] was found to be 27.05 ± 6.05 µm.

Broadly, the pIC50 is the IC50 on a negative log10 scale, so that one unit is a factor of ten. A low value points to a large IC50. For orientation: inhibition means the share of the control response that was lost under treatment. Lower therefore signals a response near the control. By Cmax is commonly meant the maximum level reached in the sampled fluid or tissue.
